Series [1] is described as follows: Phase I study D-84812-Z012, single s.c. injection: pharmacokinetics of teverelix. The following applies: between the 60 mg and 90 mg doses. The class given is in vivo, human.
Series [2] can be described thus: Phase I study D-84812-Z012, single s.c. injection: safety and tolerability. The series is classed as in vivo, human. The following applies: doses of up to 90 mg, 32 healthy male volunteers.
The conditions of series [3]: compared with degarelix; cited from earlier work.
Series [4] in a line: Phase I study EP-24332T-A004, repeated s.c. injections: safety and tolerability. The class given is in vivo, human. The following applies: 2 s.c. doses of 60 mg or 90 mg at 24 h or 48 h interval. The method, then: In a second Phase I study (EP-24332T-A004), a second injection was administered 24 h or 48 h after the first in order to increase and prolong the initial peak, as well as increase the teverelix level and consequently the number of subjects castrated. As the previous Phase I study had shown 10 mg and 30 mg to be insufficient to provide a long-term suppression, 2 doses of 60 mg or 90 mg (6 subjects per group) or placebo (4 subjects) were administered at a 24 h interval and 2 doses of 90 mg at a 48 h interval. […] No critical safety findings were reported. […] The protocol of the study included 6 subjects who received 90 mg Teverelix TFA on D1; D2; D3.

Structures are written as SMILES. Where a name gives a salt, the structure may show the parent alone. Non-standard residues stand in square brackets, D forms with d. Residues, ends and D or L forms follow the SMILES beside them. Phe(4-Cl) = N[C@@H](Cc1ccc(Cl)cc1)C(=O)O; dPhe(4-Cl) = N[C@H](Cc1ccc(Cl)cc1)C(=O)O; d2Nal = N[C@H](Cc1ccc2ccccc2c1)C(=O)O; d(hCit) = NC(=O)NCCCC[C@@H](N)C(=O)O; Lys(iPr) = CC(C)NCCCC[C@H](N)C(=O)O; d3Pal = N[C@H](Cc1cccnc1)C(=O)O

Take `CC(=O)N[C@H](Cc1ccc2ccccc2c1)C(=O)N[C@H](Cc1ccc(Cl)cc1)C(=O)N[C@H](Cc1cccnc1)C(=O)N[C@@H](CO)C(=O)N[C@@H](Cc1ccc(O)cc1)C(=O)N[C@H](CCCCNC(N)=O)C(=O)N[C@@H](CC(C)C)C(=O)N[C@@H](CCCCNC(C)C)C(=O)N1CCC[C@H]1C(=O)N[C@H](C)C(N)=O` [Teverelix TFA, teverelix trifluoroacetate] (Ac-[d2Nal][dPhe(4-Cl)][d3Pal]SY[d(hCit)]L[Lys(iPr)]P[dA]-NH2): the dose proportionality entry in series [1] is listed as “demonstrated”. In addition, in series [2], the tolerability entry is “tolerated well”. In addition, in series [3], the “local irritation at the administration site” value is reported as “less local irritation at the administration site than degarelix”.
Take `CC(=O)N[C@H](Cc1ccc2ccccc2c1)C(=O)N[C@@H](Cc1ccc(Cl)cc1)C(=O)N[C@H](Cc1cccnc1)C(=O)N[C@@H](CO)C(=O)N[C@H](Cc1ccc(O)cc1)C(=O)N[C@H](CCCCNC(N)=O)C(=O)N[C@@H](CC(C)C)C(=O)N[C@@H](CCCCNC(C)C)C(=O)N1CCC[C@H]1C(=O)N[C@H](C)C(N)=O` [teverelix, Ac-D-Nal-D-pClPhe-D-Pal-Ser-Tyr-D-Hci-Leu-Lys(iPr)-Pro-D-Ala-NH2] (Ac-[d2Nal][Phe(4-Cl)][d3Pal]S[dY][d(hCit)]L[Lys(iPr)]P[dA]-NH2): in series [4], the “local reactions at the injection sites” value is “only mild local indurations” and the tolerability result is “tolerated well”.

The values are drawn from US20200000872A1, “A COMPOSITION COMPRISING AT LEAST ONE GNRH ANTAGONIST” (ANTEV LIMITED, priority 2017, published 2020).
